Legend:
[1] = The drug is tested on Bifidobacterium ruminantium strain: fecal isolate for biotransformation. The drug concentrations were measured before and after a 12-h incubation by liquid-chromatography-coupled mass spectrometry (LC–MS); settings: 2 µM
[2] = The drug is tested on Bacteroides uniformis strain: ATCC8492 for biotransformation. The drug concentrations were measured before and after a 12-h incubation by liquid-chromatography-coupled mass spectrometry (LC–MS); settings: 2 µM
[3] = The drug is tested on Bacteroides xylanisolvens strain: DSM18836 for biotransformation. The drug concentrations were measured before and after a 12-h incubation by liquid-chromatography-coupled mass spectrometry (LC–MS); settings: 2 µM
[4] = The drug is tested on Odoribacter splanchnicus strain: fecal isolate for biotransformation. The drug concentrations were measured before and after a 12-h incubation by liquid-chromatography-coupled mass spectrometry (LC–MS); settings: 2 µM
[5] = The drug is tested on Clostridium asparagiforme strain: DSM15981 for biotransformation. The drug concentrations were measured before and after a 12-h incubation by liquid-chromatography-coupled mass spectrometry (LC–MS); type: ADME; set-up: dose 2 uM, timepoint 0 vs 12 hours; settings: enterocloster asparagiformis, 2 µM
[6] = The drug is tested on Clostridium sporogenes strain: ATCC15579 for biotransformation. The drug concentrations were measured before and after a 12-h incubation by liquid-chromatography-coupled mass spectrometry (LC–MS); settings: 2 µM
[7] = The drug is tested on Coprococcus comes strain: ATCC27758 for biotransformation. The drug concentrations were measured before and after a 12-h incubation by liquid-chromatography-coupled mass spectrometry (LC–MS); type: ADME; set-up: dose 2 uM, timepoint 0 vs 12 hours; settings: 2 µM
[8] = The drug is tested on Eubacterium rectale strain: ATCC33656 for biotransformation. The drug concentrations were measured before and after a 12-h incubation by liquid-chromatography-coupled mass spectrometry (LC–MS); settings: agathobacter rectalis, 2 µM
[9] = The drug is tested on Ruminococcus torques strain: ATCC27756 for biotransformation. The drug concentrations were measured before and after a 12-h incubation by liquid-chromatography-coupled mass spectrometry (LC–MS); type: ADME; set-up: dose 2 uM, timepoint 0 vs 12 hours; settings: 2 µM
[10] = The drug is tested on Providencia rettgeri strain: DSM1131 for biotransformation. The drug concentrations were measured before and after a 12-h incubation by liquid-chromatography-coupled mass spectrometry (LC–MS); type: ADME; set-up: dose 2 uM, timepoint 0 vs 12 hours; settings: 2 µM
[11] = bifidobacterium adolescentis, 12 h, 2 µM
Description: The drug is tested on Bifidobacterium adolescentis strain: ATCC 15703 for biotransformation. The drug concentrations were measured before and after a 12-h incubation by liquid-chromatography-coupled mass spectrometry (LC–MS)

[12] = bacteroides eggerthii, 12 h, 2 µM
Description: The drug is tested on Bacteroides eggerthii strain: DSM20697 for biotransformation. The drug concentrations were measured before and after a 12-h incubation by liquid-chromatography-coupled mass spectrometry (LC–MS)

[13] = bacteroides fragilis, 12 h, 2 µM
Description: The drug is tested on Bacteroides fragilis strain: 3397 (T10) for biotransformation. The drug concentrations were measured before and after a 12-h incubation by liquid-chromatography-coupled mass spectrometry (LC–MS)

[14] = bacteroides fragilis, 12 h, 2 µM; remark: listed apart in the source
Description: The drug is tested on Bacteroides fragilis strain: DS-208 for biotransformation. The drug concentrations were measured before and after a 12-h incubation by liquid-chromatography-coupled mass spectrometry (LC–MS)

[15] = bacteroides stercoris, 12 h, 2 µM
Description: The drug is tested on Bacteroides stercoris strain: ATCC43183 for biotransformation. The drug concentrations were measured before and after a 12-h incubation by liquid-chromatography-coupled mass spectrometry (LC–MS)

[16] = parabacteroides johnsonii, 12 h, 2 µM
Description: The drug is tested on Parabacteroides johnsonii strain: DSM18315 for biotransformation. The drug concentrations were measured before and after a 12-h incubation by liquid-chromatography-coupled mass spectrometry (LC–MS)

[17] = limosilactobacillus reuteri cf48-3a, 12 h, 2 µM
Description: The drug is tested on Lactobacillus reuteri CF48-3A strain: BEI HM-102 for biotransformation. The drug concentrations were measured before and after a 12-h incubation by liquid-chromatography-coupled mass spectrometry (LC–MS)

[18] = akkermansia muciniphila, 12 h, 2 µM
Description: The drug is tested on Akkermansia muciniphila strain: ATCC BAA-835 for biotransformation. The drug concentrations were measured before and after a 12-h incubation by liquid-chromatography-coupled mass spectrometry (LC–MS)

[19] = The drug is tested on Bacteroides vulgatus strain: ATCC8482 for biotransformation. The drug concentrations were measured before and after a 12-h incubation by liquid-chromatography-coupled mass spectrometry (LC–MS); settings: phocaeicola vulgatus, 2 µM
[20] = roseburia intestinalis, 12 h, 2 µM
Description: The drug is tested on Roseburia intestinalis strain: L1-82 for biotransformation. The drug concentrations were measured before and after a 12-h incubation by liquid-chromatography-coupled mass spectrometry (LC–MS)

## Cc1nc(Nc2ncc(C(=O)Nc3c(C)cccc3Cl)s2)cc(N2CCN(CCO)CC2)n1.O [DASATINIB]
[1]
  Bacterial Biotransformation: Compound metabolized
[2]
  Bacterial Biotransformation: Compound NOT metabolized
[3]
  Bacterial Biotransformation: Compound NOT metabolized
[4]
  Bacterial Biotransformation: Compound NOT metabolized
[5]
  Bacterial Biotransformation: Compound NOT metabolized
[6]
  Bacterial Biotransformation: Compound NOT metabolized
[7]
  Bacterial Biotransformation: Compound NOT metabolized
[8]
  Bacterial Biotransformation: Compound NOT metabolized
[9]
  Bacterial Biotransformation: Compound NOT metabolized
[10]
  Bacterial Biotransformation: Compound NOT metabolized
[11]
  Bacterial Biotransformation: Compound metabolized
[12]
  Bacterial Biotransformation: Compound NOT metabolized
[13]
  Bacterial Biotransformation: Compound metabolized
[14]
  Bacterial Biotransformation: Compound metabolized
[15]
  Bacterial Biotransformation: Compound metabolized
[16]
  Bacterial Biotransformation: Compound metabolized
[17]
  Bacterial Biotransformation: Compound metabolized
[18]
  Bacterial Biotransformation: Compound metabolized

## Br.COc1ccc2c(c1)[C@]13CCCC[C@@H]1[C@H](C2)N(C)CC3.O [DEXTROMETHORPHAN HYDROBROMIDE]
[1]
  Bacterial Biotransformation: Compound NOT metabolized
[2]
  Bacterial Biotransformation: Compound NOT metabolized
[19]
  Bacterial Biotransformation: Compound NOT metabolized
[5]
  Bacterial Biotransformation: Compound NOT metabolized
[6]
  Bacterial Biotransformation: Compound NOT metabolized
[7]
  Bacterial Biotransformation: Compound NOT metabolized
[8]
  Bacterial Biotransformation: Compound NOT metabolized
[9]
  Bacterial Biotransformation: Compound NOT metabolized
[10]
  Bacterial Biotransformation: Compound NOT metabolized
[11]
  Bacterial Biotransformation: Compound NOT metabolized
[12]
  Bacterial Biotransformation: Compound NOT metabolized
[13]
  Bacterial Biotransformation: Compound NOT metabolized
[14]
  Bacterial Biotransformation: Compound NOT metabolized
[15]
  Bacterial Biotransformation: Compound NOT metabolized
[17]
  Bacterial Biotransformation: Compound NOT metabolized
[20]
  Bacterial Biotransformation: Compound NOT metabolized

## COc1ccc([C@@H]2Sc3ccccc3N(CCN(C)C)C(=O)[C@@H]2OC(C)=O)cc1 [DILTIAZEM]
[1]
  Bacterial Biotransformation: Compound NOT metabolized
[2]
  Bacterial Biotransformation: Compound metabolized
[19]
  Bacterial Biotransformation: Compound metabolized
[3]
  Bacterial Biotransformation: Compound metabolized
[4]
  Bacterial Biotransformation: Compound NOT metabolized
[5]
  Bacterial Biotransformation: Compound NOT metabolized
[6]
  Bacterial Biotransformation: Compound NOT metabolized
[7]
  Bacterial Biotransformation: Compound metabolized
[8]
  Bacterial Biotransformation: Compound NOT metabolized
[9]
  Bacterial Biotransformation: Compound metabolized
[11]
  Bacterial Biotransformation: Compound NOT metabolized
[12]
  Bacterial Biotransformation: Compound NOT metabolized
[14]
  Bacterial Biotransformation: Compound NOT metabolized
[16]
  Bacterial Biotransformation: Compound metabolized
[20]
  Bacterial Biotransformation: Compound NOT metabolized
[18]
  Bacterial Biotransformation: Compound metabolized

## O=C(Nc1ccccc1)OCC(CN1CCCCC1)OC(=O)Nc1ccccc1 (stereo not given) [DIPERODON]
[1]
  Bacterial Biotransformation: Compound NOT metabolized
[2]
  Bacterial Biotransformation: Compound NOT metabolized
[19]
  Bacterial Biotransformation: Compound NOT metabolized
[3]
  Bacterial Biotransformation: Compound NOT metabolized
[5]
  Bacterial Biotransformation: Compound NOT metabolized
[6]
  Bacterial Biotransformation: Compound NOT metabolized
[7]
  Bacterial Biotransformation: Compound NOT metabolized
[8]
  Bacterial Biotransformation: Compound NOT metabolized
[9]
  Bacterial Biotransformation: Compound NOT metabolized
[10]
  Bacterial Biotransformation: Compound NOT metabolized
[11]
  Bacterial Biotransformation: Compound NOT metabolized
[12]
  Bacterial Biotransformation: Compound NOT metabolized
[13]
  Bacterial Biotransformation: Compound NOT metabolized
[14]
  Bacterial Biotransformation: Compound NOT metabolized
[15]
  Bacterial Biotransformation: Compound NOT metabolized
[17]
  Bacterial Biotransformation: Compound NOT metabolized
[20]
  Bacterial Biotransformation: Compound NOT metabolized
[18]
  Bacterial Biotransformation: Compound NOT metabolized

## CCOC(=O)[C@H](CCc1ccccc1)N[C@@H](C)C(=O)N1CCC[C@H]1C(=O)O.O=C(O)/C=C\C(=O)O [ENALAPRIL MALEATE]
[1]
  Bacterial Biotransformation: Compound NOT metabolized
[2]
  Bacterial Biotransformation: Compound NOT metabolized
[19]
  Bacterial Biotransformation: Compound NOT metabolized
[3]
  Bacterial Biotransformation: Compound metabolized
[4]
  Bacterial Biotransformation: Compound NOT metabolized
[5]
  Bacterial Biotransformation: Compound NOT metabolized
[6]
  Bacterial Biotransformation: Compound NOT metabolized
[7]
  Bacterial Biotransformation: Compound NOT metabolized
[8]
  Bacterial Biotransformation: Compound NOT metabolized
[9]
  Bacterial Biotransformation: Compound NOT metabolized
[10]
  Bacterial Biotransformation: Compound NOT metabolized
[11]
  Bacterial Biotransformation: Compound NOT metabolized
[12]
  Bacterial Biotransformation: Compound NOT metabolized
[13]
  Bacterial Biotransformation: Compound NOT metabolized
[14]
  Bacterial Biotransformation: Compound NOT metabolized
[15]
  Bacterial Biotransformation: Compound NOT metabolized
[17]
  Bacterial Biotransformation: Compound NOT metabolized
[20]
  Bacterial Biotransformation: Compound NOT metabolized
[18]
  Bacterial Biotransformation: Compound NOT metabolized

## Cc1ccc(S(=O)(=O)NC(=O)NN2CC3CCCC3C2)cc1 (stereo not given) [GLICLAZIDE]
[1]
  Bacterial Biotransformation: Compound NOT metabolized
[19]
  Bacterial Biotransformation: Compound metabolized
[3]
  Bacterial Biotransformation: Compound NOT metabolized
[4]
  Bacterial Biotransformation: Compound NOT metabolized
[5]
  Bacterial Biotransformation: Compound NOT metabolized
[6]
  Bacterial Biotransformation: Compound NOT metabolized
[7]
  Bacterial Biotransformation: Compound NOT metabolized
[8]
  Bacterial Biotransformation: Compound NOT metabolized
[9]
  Bacterial Biotransformation: Compound NOT metabolized
[11]
  Bacterial Biotransformation: Compound NOT metabolized
[12]
  Bacterial Biotransformation: Compound NOT metabolized
[13]
  Bacterial Biotransformation: Compound metabolized
[14]
  Bacterial Biotransformation: Compound NOT metabolized
[15]
  Bacterial Biotransformation: Compound NOT metabolized
[16]
  Bacterial Biotransformation: Compound NOT metabolized
[17]
  Bacterial Biotransformation: Compound NOT metabolized
[20]
  Bacterial Biotransformation: Compound NOT metabolized
[18]
  Bacterial Biotransformation: Compound NOT metabolized

## CCc1nn(CCCN2CCN(c3cccc(Cl)c3)CC2)c(=O)n1CCOc1ccccc1 [NEFAZODONE]
[1]
  Bacterial Biotransformation: Compound NOT metabolized
[3]
  Bacterial Biotransformation: Compound NOT metabolized
[4]
  Bacterial Biotransformation: Compound NOT metabolized
[5]
  Bacterial Biotransformation: Compound NOT metabolized
[6]
  Bacterial Biotransformation: Compound NOT metabolized
[7]
  Bacterial Biotransformation: Compound NOT metabolized
[8]
  Bacterial Biotransformation: Compound NOT metabolized
[9]
  Bacterial Biotransformation: Compound NOT metabolized
[10]
  Bacterial Biotransformation: Compound NOT metabolized
[11]
  Bacterial Biotransformation: Compound NOT metabolized
[12]
  Bacterial Biotransformation: Compound NOT metabolized
[13]
  Bacterial Biotransformation: Compound NOT metabolized
[14]
  Bacterial Biotransformation: Compound NOT metabolized
[15]
  Bacterial Biotransformation: Compound NOT metabolized
[16]
  Bacterial Biotransformation: Compound NOT metabolized
[17]
  Bacterial Biotransformation: Compound NOT metabolized
[20]
  Bacterial Biotransformation: Compound NOT metabolized
[18]
  Bacterial Biotransformation: Compound NOT metabolized

## NC(=O)N1c2ccccc2CC(=O)c2ccccc21 [OXCARBAZEPINE]
[1]
  Bacterial Biotransformation: Compound metabolized
[2]
  Bacterial Biotransformation: Compound metabolized
[4]
  Bacterial Biotransformation: Compound metabolized
[5]
  Bacterial Biotransformation: Compound NOT metabolized
[6]
  Bacterial Biotransformation: Compound metabolized
[7]
  Bacterial Biotransformation: Compound NOT metabolized
[8]
  Bacterial Biotransformation: Compound metabolized
[9]
  Bacterial Biotransformation: Compound metabolized
[10]
  Bacterial Biotransformation: Compound metabolized
[11]
  Bacterial Biotransformation: Compound metabolized
[12]
  Bacterial Biotransformation: Compound NOT metabolized
[15]
  Bacterial Biotransformation: Compound metabolized
[17]
  Bacterial Biotransformation: Compound metabolized
[20]
  Bacterial Biotransformation: Compound metabolized
[18]
  Bacterial Biotransformation: Compound metabolized

## CCCN1C[C@H](CSC)C[C@@H]2c3cccc4[nH]cc(c34)C[C@H]21.CS(=O)(=O)O [PERGOLIDE MESYLATE]
[1]
  Bacterial Biotransformation: Compound NOT metabolized
[2]
  Bacterial Biotransformation: Compound NOT metabolized
[19]
  Bacterial Biotransformation: Compound NOT metabolized
[3]
  Bacterial Biotransformation: Compound NOT metabolized
[5]
  Bacterial Biotransformation: Compound NOT metabolized
[6]
  Bacterial Biotransformation: Compound NOT metabolized
[7]
  Bacterial Biotransformation: Compound NOT metabolized
[8]
  Bacterial Biotransformation: Compound NOT metabolized
[9]
  Bacterial Biotransformation: Compound NOT metabolized
[11]
  Bacterial Biotransformation: Compound NOT metabolized
[12]
  Bacterial Biotransformation: Compound NOT metabolized
[13]
  Bacterial Biotransformation: Compound NOT metabolized
[14]
  Bacterial Biotransformation: Compound NOT metabolized
[15]
  Bacterial Biotransformation: Compound NOT metabolized
[16]
  Bacterial Biotransformation: Compound NOT metabolized
[17]
  Bacterial Biotransformation: Compound NOT metabolized
[20]
  Bacterial Biotransformation: Compound NOT metabolized

Reference: ChEMBL document CHEMBL5303573, “Mapping human microbiome drug metabolism by gut bacteria and their genes” (Nature, 2019)
